Results on 19 compounds are retold here after patent US8778966B2, “Quinolinone derivatives as PARP and tank inhibitors” (Janssen Pharmaceutica, NV, priority 2007, dated 2014).

For `CCc1cc2ccc([C@](C)(C#N)Cc3ccccc3)cc2[nH]c1=O` (single isomer, unassigned) [Compound 45], the melting point (in general, the temperature, or range, at which the solid turns liquid) was found to be 162 °C. To `CCc1cc2ccc([C@@](C)(C#N)Cc3ccccc3)cc2[nH]c1=O` (single isomer, unassigned) [Compound 46] belongs 177 °C; to `CCc1cc2ccc(C(C)(C#N)CC3COc4ccccc4O3)cc2[nH]c1=O` (single isomer, unassigned) [Compound 47], 176 °C; to `CCc1cc2ccc([C@](C)(C#N)Cc3nc(OC)cc(OC)n3)cc2[nH]c1=O` (single isomer, unassigned) [Compound 52], 178 °C. Compound `CCc1cc2ccc([C@@](C)(C#N)Cc3nc(OC)cc(OC)n3)cc2[nH]c1=O` (single isomer, unassigned) [Compound 53] returned a melting point of 163 °C. In turn, `CCc1cc2ccc(C(C)(C#N)Cc3cccc(C#C[Si](C)(C)C)c3)cc2[nH]c1=O` (stereo not shown) [Compound 1] yielded a melting point of 178 °C. The same measure for `CCc1cc2ccc(C(C)(C#N)Cc3cccc(COC)c3)cc2[nH]c1=O` (stereo not shown) [Compound 8]: 122 °C.

Compound `CCc1cc2ccc(C(C)(C#N)Cc3cccc(CO)c3)cc2[nH]c1=O` (stereo not shown) [Compound 9] returned a melting point of 182 °C. To `CCc1cc2ccc(C(C#N)(Cc3ccccc3)CC3CC3)cc2[nH]c1=O` (stereo not shown) [Compound 28] belongs 212 °C; to `CC(C#N)(Cc1ccccc1)c1ccc2cc(CO)c(=O)[nH]c2c1` (stereo not shown) [Compound 40], 176 °C; to `CCc1cc2ccc(C(C)(C#N)Cc3c(F)ccc(C)c3F)cc2[nH]c1=O` (stereo not shown) [Compound 41], 190 °C.

`CCc1cc2ccc(C(C)(C#N)Cc3nnsc3Cl)cc2[nH]c1=O` (stereo not shown) [Compound 42] displayed a melting point of 220 °C. The same measure for `CCc1cc2ccc(C(C)(C#N)Cc3nc(OC)cc(OC)n3)cc2[nH]c1=O` (stereo not shown) [Compound 43]: 90 °C; for `CCc1cc2ccc(C(C)(C#N)Cc3ccccc3)cc2[nH]c1=O` (stereo not shown) [Compound 44]: 168 °C. To `CCc1cc2ccc(C(C)(C#N)Cc3cccc(Br)c3)cc2[nH]c1=O` (stereo not shown) [Compound 49] belongs 186 °C; to `CCOP(=O)(OCC)c1cccc(CC(C)(C#N)c2ccc3cc(CC)c(=O)[nH]c3c2)c1` (stereo not shown) [Compound 50], 80 °C.

`CCc1cc2ccc(C(C)(C#N)Cc3cccc(C#N)c3)cc2[nH]c1=O` (stereo not shown) [Compound 51] had a melting point of 192 °C. The same measure for `CCc1cc2ccc(C(C)(C#N)CCOc3ccc([N+](=O)[O-])cc3)cc2[nH]c1=O` (stereo not shown) [Compound 54]: 216 °C. To `Cc1cc2ccc(C(C)(C#N)Cc3cc4ccccc4[nH]3)cc2[nH]c1=O` (stereo not shown) [Compound 234] belongs > 260 °C.
